These compounds were tested against T1, Recombinant human ATX (Homo sapiens, UniProt Q13822) (assay: Assessing ATX inhibition: released choline, Amplex Red fluorescence). Conditions: ATX 10 nM, LPC 18:1 10 μM, pre-incubated with ATX at 37° C. for 20 minutes; Table 1, exemplified compounds; read-out: IC50.
T1 construct: made in house; host or cells: human embryonic kidney (HEK) cells
Assay type: biochemical
Experimental: LPC (oleoyl (18:1)) was purchased from Avanti Polar Lipids (Alabaster; AL) and solubilized in methanol to 20 mM. Amplex Red was obtained from Invitrogen Life Technologies (Paisley, UK) and dissolved in DMSO to 10 mM. Choline oxidase and horseradish peroxidase (HRP) were obtained from Sigma Aldrich (Dorset, UK) and dissolved in HBSS to 20 U/ml and 200 U/ml respectively. All reagents were stored at −20° C. in single use aliquots. All experimental measurements were performed in assay buffer made up immediately prior to use (HBSS, 0.01% BSA essentially fatty acid free).
Recombinant human ATX was prepared at Novartis (Basel, CH) in a human embryonic kidney (HEK) cell preparation, and stored in single use aliquots of […] (26 μM) stocks stored at −80° C.
All experimental measurements were performed in black 384 well polystyrene (low volume, round bottom, Corning (3676)) plates. PerkinElmer EnVision (Fluorescence Intensity/Absorbance Monochromator) or Tecan Infinite 200 PRO series plate reader was used to detect change in fluorescent intensity.
ATX activity was determined by measurement of released choline in reactions containing ATX (10 nM), choline oxidase (0.1 U/ml), HRP (100 U/ml), amplex red (50 μM) and LPC 18:1 (10 μM). Compounds of the invention were prepared as 10 point serial dilutions from 1 μM in duplicate and pre-incubated with ATX at 37° C. for 20 minutes prior to the addition of remaining reagents. The liberated choline was measured from changes in fluorescence intensity (λex 530 nm, λem 590 nm) of the product resurofin at 37° C. every 2 minutes over a 40-minute period. ATX activity was measured as a slope of the linear portion of the progress curve, typically between 14 to 24 minutes.
Slope data was exported to Graphpad prism (Graphpad software, San Diego, Calif.) where data was fitted to equation 1.
Y=Bottom+(Top−Bottom)/(1+10̂((Log IC50−X)*HillSlope)) Equation 1: […]

IC50 | Structure (SMILES)
24 nM | O=C(CCCc1c[nH]nn1)NC1CCN(C(=O)OCCc2cc(Cl)cc(Cl)c2)CC1 [Example 59, 3,5-Dichlorophenethyl 4-(4-(1H-1,2,3-triazol-4-yl)butanamido)piperidine-1-carboxylate]
360 nM | Cc1oc(=O)[nH]c1C(=O)N(C)CCC1CCN(C(=O)OCc2cc(Cl)cc(Cl)c2)CC1 [Example 8, 3,5-Dichlorobenzyl 4-(2-(N,5-dimethyl-2-oxo-2,3-dihydrooxazole-4-carboxamido)ethyl)piperidine-1-carboxylate]
87 nM | O=C(CCCc1c[nH]nn1)NC1CCN(C(=O)CCc2ccc(C(F)(F)F)cc2)CC1 [Example 54, 4-(1H-1,2,3-Triazol-4-yl)-N-(1-(3-(4-(trifluoromethyl)phenyl)propanoyl)piperidin-4-yl)butanamide]
18 nM | O=C(CCCc1cnn[nH]1)NCC1CCN(C(=O)OCc2cc(Cl)cc(Cl)c2)CC1 [Example 41, 3,5-Dichlorobenzyl 4-((4-(1H-1,2,3-triazol-5-yl)butanamido)methyl)piperidine-1-carboxylate]
274 nM | CN(CCC1CCN(C(=O)/C=C/c2cc(Cl)cc(Cl)c2)CC1)C(=O)c1c[nH]c(=O)o1 [Example 30, (E)-N-(2-(1-(3-(3,5-Dichlorophenyl)acryloyl)piperidin-4-yl)ethyl)-N-methyl-2-oxo-2,3-dihydrooxazole-5-carboxamide]
4 nM | N#Cc1cc(COC(=O)N2CCC(NC(=O)CCCc3c[nH]nn3)CC2)cc(C(F)(F)F)c1 [Example 66, 3-Cyano-5-(trifluoromethyl)benzyl 4-(4-(1H-1,2,3-triazol-4-yl)butanamido)piperidine-1-carboxylate]
282 nM | O=C(NCCCN1CCN(C(=O)OCc2cc(Cl)cc(Cl)c2)CC1)c1c[nH]nn1 [Example 34, 3,5-Dichlorobenzyl 4-(3-(1H-1,2,3-triazole-4-carboxamido)propyl)piperazine-1-carboxylate]
106 nM | O=C(NCCC1CCN(C(=O)OCc2cc(Cl)cc(Cl)c2)CC1)c1c[nH]c(=O)o1 [Example 21, 3,5-Dichlorobenzyl 4-(2-(2-oxo-2,3-dihydrooxazole-5-carboxamido)ethyl)piperidine-1-carboxylate]
248 nM | COc1c(N(C)CCC2CCN(C(=O)OCc3cc(Cl)cc(Cl)c3)CC2)c(=O)c1=O [Example 2]
109 nM | O=C(/C=C/c1c[nH]cn1)NC1CCN(C(=O)OCc2cc(Cl)cc(Cl)c2)CC1 [Example 9, (E)-3,5-Dichlorobenzyl 4-(3-(1H-imidazol-4-yl)acrylamido)piperidine-1-carboxylate]
644 nM | CN(CCC1CCN(C(=O)OCc2cc(Cl)cc(Cl)c2)CC1)C(=O)c1cc(O)no1 [Example 1, 3,5-Dichlorobenzyl 4-(2-(3-hydroxy-N-methylisoxazole-5-carboxamido)ethyl) piperidine-1-carboxylate]
175 nM | CN(CCC1CCN(C(=O)OCc2cc(Cl)cc(Cl)c2)CC1)C(=O)c1c[nH]nn1 [Example 35, 3,5-Dichlorobenzyl 4-(2-(N-methyl-1H-1,2,3-triazole-4-carboxamido)ethyl)piperidine-1-carboxylate]
21 nM | O=C(CCCc1nnn[nH]1)NC1CCN(C(=O)OCc2cc(Cl)cc(Cl)c2)CC1 [Example 74, 3,5-Dichlorobenzyl 4-(4-(1H-tetrazol-5-yl)butanamido)piperidine-1-carboxylate]
2 nM | O=C(CCCc1c[nH]c(=O)s1)NC1CCN(C(=O)OCc2cc(Cl)cc(Cl)c2)CC1 [Example 73, 3,5-Dichlorobenzyl 4-(4-(2-oxo-2,3-dihydrothiazol-5-yl)butanamido)piperidine-1-carboxylate]
15 nM | O=C(CC1CCN(C(=O)OCc2cc(Cl)cc(Cl)c2)CC1)NCCc1c[nH]nn1 [Example 61, 3,5-Dichlorobenzyl 4-(2-((2-(1H-1,2,3-triazol-4-yl)ethyl)amino)-2-oxoethyl)piperidine-1-carboxylate]
17 nM | O=C(CCc1cnn[nH]1)NCC1CCN(C(=O)OCc2cc(Cl)cc(Cl)c2)CC1 [Example 57, 3,5-Dichlorobenzyl 4-((3-(1H-1,2,3-triazol-5-yl)propanamido)methyl)piperidine-1-carboxylate]
29 nM | CN(CCC1CCN(C(=O)OCc2cc(Cl)cc(Cl)c2)CC1)C(=O)c1c[nH]c(=O)s1 [Example 15, 3,5-Dichlorobenzyl 4-(2-(N-methyl-2-oxo-2,3-dihydrothiazole-5-carboxamido)ethyl)piperidine-1-carboxylate]

Further lines, the compound ahead of its results:

Structure (SMILES) | IC50
O=C(OCc1cc(Cl)cc(Cl)c1)N1CCC(CCCCCc2c[nH]nn2)CC1 [Example 68, 3,5-Dichlorobenzyl 4-(5-(1H-1,2,3-triazol-4-yl)pentyl)piperidine-1-carboxylate] | 318 nM
N#Cc1cc(Cl)cc(COC(=O)N2CCC(CCCCCc3c[nH]nn3)CC2)c1 [Example 69, 3-Chloro-5-cyanobenzyl 4-(5-(1H-1,2,3-triazol-4-yl)pentyl)piperidine-1-carboxylate] | 69 nM
O=C(CCc1cc(O)no1)NCC1CCN(C(=O)OCc2cc(Cl)cc(Cl)c2)CC1 [Example 33, 3,5-Dichlorobenzyl 4-((3-(3-hydroxyisoxazol-5-yl)propanamido)methyl)piperidine-1-carboxylate] | 131 nM
CN(CCC1CCN(C(=O)OCc2cc(Cl)cc(Cl)c2)CC1)C(=O)Cc1c[nH]nn1 [Example 6, 3,5-Dichlorobenzyl 4-(2-(N-methyl-2-(1H-1,2,3-triazol-4-yl)acetamido)ethyl)piperidine-1-carboxylate] | 62 nM
O=C(NCCC1CN(C(=O)OCc2cc(Cl)cc(Cl)c2)CCO1)c1c[nH]c(=O)o1 (stereo not shown) [Example 12, 3,5-Dichlorobenzyl 2-(2-(2-oxo-2,3-dihydrooxazole-5-carboxamido)ethyl)morpholine-4-carboxylate] | 520 nM
O=C(CCCCCc1c[nH]nn1)NC1CCN(C(=O)OCc2cc(Cl)cc(Cl)c2)CC1 [Example 67, 3,5-Dichlorobenzyl 4-(6-(1H-1,2,3-triazol-4-yl)hexanamido)piperidine-1-carboxylate] | 4 nM
N#Cc1cc(COC(=O)N2CCC(NC(=O)CCCc3c[nH]nn3)CC2)cc(Cl)c1Cl [Example 72, 3,4-Dichloro-5-cyanobenzyl 4-(4-(1H-1,2,3-triazol-4-yl)butanamido)piperidine-1-carboxylate] | 7 nM
O=C(CCCc1c[nH]nn1)NC1CCN(C(=O)OCc2cc(Cl)cc(Cl)c2)CC1 [Example 17, 3,5-Dichlorobenzyl 4-(4-(1H-1,2,3-triazol-4-yl)butanamido)piperidine-1-carboxylate] | 2 nM
N#Cc1cc(COC(=O)N2CCC(NC(=O)CCCc3c[nH]nn3)CC2)cc(OC(F)(F)F)c1 [Example 70, 3-Cyano-5-(trifluoromethoxy)benzyl 4-(4-(1H-1,2,3-triazol-4-yl)butanamido)piperidine-1-carboxylate] | 5 nM
O=C(CCCc1c[nH]nn1)NC1CC2CCC(C1)N2C(=O)OCc1cc(Cl)cc(Cl)c1 (stereo not shown) [Example 45, 3,5-Dichlorobenzyl 3-(4-(1H-1,2,3-triazol-4-yl)butanamido)-8-azabicyclo[3.2.1]octane-8-carboxylate] | 555 nM
CN(C(=O)CCCc1c[nH]nn1)C1CCN(C(=O)OCc2cc(Cl)cc(Cl)c2)CC1 [Example 18, 3,5-Dichlorobenzyl 4-(N-methyl-4-(1H-1,2,3-triazol-4-yl)butanamido)piperidine-1-carboxylate] | 94 nM
O=C(NCCC1CCN(C(=O)/C=C/c2cc(Cl)cc(Cl)c2)CC1)c1c[nH]c(=O)o1 [Example 31, (E)-N-(2-(1-(3-(3,5-Dichlorophenyl)acryloyl)piperidin-4-yl)ethyl)-2-oxo-2,3-dihydrooxazole-5-carboxamide] | 387 nM
O=C(CCCc1c[nH]nn1)NC1CCN(C(=O)OCc2cc(F)cc(Cl)c2)CC1 [Example 37, 3-Chloro-5-fluorobenzyl 4-(4-(1H-1,2,3-triazol-4-yl)butanamido)piperidine-1-carboxylate] | 55 nM
O=C(NCCC1CCN(C(=O)OCc2cc(Cl)cc(Cl)c2)CC1)c1nn[nH]n1 [Example 16, 3,5-Dichlorobenzyl 4-(2-(2H-tetrazole-5-carboxamido)ethyl)piperidine-1-carboxylate] | 596 nM
O=C(CCCc1c[nH]nn1)NC1CCN(C(=O)/C=C/c2cc(Cl)cc(Cl)c2)CC1 [Example 38, (E)-N-(1-(3-(3,5-Dichlorophenyl)acryloyl)piperidin-4-yl)-4-(1H-1,2,3-triazol-4-yl)butanamide] | 21 nM

Same assay, conditions: same assay; compounds outside the scope of the invention; read-out: IC50

IC50 | Structure (SMILES)
1390 nM | O=C(CCCc1c[nH]nn1)NC1CCN(C(=O)OCc2ccccc2)CC1 [reference compound]
> 1000 nM | O=C(NCC1CCN(C(=O)OCc2cc(Cl)cc(Cl)c2)CC1)c1cc(O)no1 [reference compound]

From US20140171404A1, “Autotaxin inhibitors” (NOVARTIS AG, priority 2012, published 2014)
